ChEMBL document CHEMBL1909046, “DrugMatrix in vitro pharmacology data”

Legend:
[1] = biological target: 5-hydroxytryptamine receptor 6 (Homo sapiens, UniProt P50406); assay type: cell membranes, HeLa, Membrane; conditions: hela; also: in other assays of this panel Not Active means under 50% inhibition at 10 µM
[2] = biological target: Voltage-gated inwardly rectifying potassium channel KCNH2 (Homo sapiens, UniProt Q12809); conditions: hek293; also: in other assays of this panel Not Active means under 50% inhibition at 10 µM
Voltage-gated inwardly rectifying potassium channel KCNH2, sequence (Q12809 whole entry): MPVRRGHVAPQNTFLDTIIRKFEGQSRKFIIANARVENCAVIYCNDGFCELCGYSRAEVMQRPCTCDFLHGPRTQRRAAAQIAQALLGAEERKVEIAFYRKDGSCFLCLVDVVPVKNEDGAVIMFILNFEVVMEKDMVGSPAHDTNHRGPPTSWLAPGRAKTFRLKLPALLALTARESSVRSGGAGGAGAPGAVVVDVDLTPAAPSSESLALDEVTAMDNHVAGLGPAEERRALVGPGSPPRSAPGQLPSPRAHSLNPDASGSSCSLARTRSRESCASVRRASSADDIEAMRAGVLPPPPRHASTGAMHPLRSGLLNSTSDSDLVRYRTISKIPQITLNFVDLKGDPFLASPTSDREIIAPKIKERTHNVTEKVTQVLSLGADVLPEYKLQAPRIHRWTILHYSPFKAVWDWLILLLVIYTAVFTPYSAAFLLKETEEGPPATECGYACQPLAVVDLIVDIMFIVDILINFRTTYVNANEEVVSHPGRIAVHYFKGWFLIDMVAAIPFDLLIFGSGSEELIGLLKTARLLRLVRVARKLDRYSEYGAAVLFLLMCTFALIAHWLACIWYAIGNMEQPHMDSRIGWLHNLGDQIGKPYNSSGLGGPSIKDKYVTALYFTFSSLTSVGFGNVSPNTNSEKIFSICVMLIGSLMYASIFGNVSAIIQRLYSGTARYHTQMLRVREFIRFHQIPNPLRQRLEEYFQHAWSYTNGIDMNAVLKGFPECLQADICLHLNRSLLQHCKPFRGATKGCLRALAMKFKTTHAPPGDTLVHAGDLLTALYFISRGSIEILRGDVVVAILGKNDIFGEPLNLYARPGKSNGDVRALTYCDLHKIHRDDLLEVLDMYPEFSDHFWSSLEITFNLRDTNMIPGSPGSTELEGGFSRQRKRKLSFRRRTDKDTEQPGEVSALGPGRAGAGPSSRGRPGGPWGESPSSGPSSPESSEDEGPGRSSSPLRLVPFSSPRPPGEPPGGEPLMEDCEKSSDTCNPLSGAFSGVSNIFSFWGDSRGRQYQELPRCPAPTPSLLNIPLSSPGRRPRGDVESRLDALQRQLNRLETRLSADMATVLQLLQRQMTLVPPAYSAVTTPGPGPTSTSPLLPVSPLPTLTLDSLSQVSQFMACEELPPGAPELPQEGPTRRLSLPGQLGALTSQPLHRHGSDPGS

Adenosine receptor A1 = biological target: T1, Adenosine receptor A1 (Homo sapiens, UniProt P30542); assay type: cell membranes, CHO, Membrane;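 also: radioligand binding assay at the adenosine A1 receptor, with DPCPX serving as the labelled ligand; in other assays of this panel Not Active means under 50% inhibition at 10 µM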
T1 sequence (P30542 whole entry): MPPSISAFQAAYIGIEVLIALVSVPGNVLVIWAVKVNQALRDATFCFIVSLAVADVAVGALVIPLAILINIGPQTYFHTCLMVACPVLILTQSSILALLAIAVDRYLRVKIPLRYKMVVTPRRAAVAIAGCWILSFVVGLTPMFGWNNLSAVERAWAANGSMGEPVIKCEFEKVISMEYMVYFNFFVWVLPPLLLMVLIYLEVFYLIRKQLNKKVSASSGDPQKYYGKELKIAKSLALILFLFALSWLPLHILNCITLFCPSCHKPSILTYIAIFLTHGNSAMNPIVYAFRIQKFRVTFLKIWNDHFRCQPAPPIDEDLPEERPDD

[3] = biological target: T2, Angiotensin-converting enzyme (Oryctolagus cuniculus, UniProt P12822); assay type: tissue-based, Lung;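 also: enzymatic inhibition of angiotensin-converting enzyme measured with FAPGG as the substrate; in other assays of this panel Not Active means under 50% inhibition at 10 µM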
T2 sequence (P12822 whole entry): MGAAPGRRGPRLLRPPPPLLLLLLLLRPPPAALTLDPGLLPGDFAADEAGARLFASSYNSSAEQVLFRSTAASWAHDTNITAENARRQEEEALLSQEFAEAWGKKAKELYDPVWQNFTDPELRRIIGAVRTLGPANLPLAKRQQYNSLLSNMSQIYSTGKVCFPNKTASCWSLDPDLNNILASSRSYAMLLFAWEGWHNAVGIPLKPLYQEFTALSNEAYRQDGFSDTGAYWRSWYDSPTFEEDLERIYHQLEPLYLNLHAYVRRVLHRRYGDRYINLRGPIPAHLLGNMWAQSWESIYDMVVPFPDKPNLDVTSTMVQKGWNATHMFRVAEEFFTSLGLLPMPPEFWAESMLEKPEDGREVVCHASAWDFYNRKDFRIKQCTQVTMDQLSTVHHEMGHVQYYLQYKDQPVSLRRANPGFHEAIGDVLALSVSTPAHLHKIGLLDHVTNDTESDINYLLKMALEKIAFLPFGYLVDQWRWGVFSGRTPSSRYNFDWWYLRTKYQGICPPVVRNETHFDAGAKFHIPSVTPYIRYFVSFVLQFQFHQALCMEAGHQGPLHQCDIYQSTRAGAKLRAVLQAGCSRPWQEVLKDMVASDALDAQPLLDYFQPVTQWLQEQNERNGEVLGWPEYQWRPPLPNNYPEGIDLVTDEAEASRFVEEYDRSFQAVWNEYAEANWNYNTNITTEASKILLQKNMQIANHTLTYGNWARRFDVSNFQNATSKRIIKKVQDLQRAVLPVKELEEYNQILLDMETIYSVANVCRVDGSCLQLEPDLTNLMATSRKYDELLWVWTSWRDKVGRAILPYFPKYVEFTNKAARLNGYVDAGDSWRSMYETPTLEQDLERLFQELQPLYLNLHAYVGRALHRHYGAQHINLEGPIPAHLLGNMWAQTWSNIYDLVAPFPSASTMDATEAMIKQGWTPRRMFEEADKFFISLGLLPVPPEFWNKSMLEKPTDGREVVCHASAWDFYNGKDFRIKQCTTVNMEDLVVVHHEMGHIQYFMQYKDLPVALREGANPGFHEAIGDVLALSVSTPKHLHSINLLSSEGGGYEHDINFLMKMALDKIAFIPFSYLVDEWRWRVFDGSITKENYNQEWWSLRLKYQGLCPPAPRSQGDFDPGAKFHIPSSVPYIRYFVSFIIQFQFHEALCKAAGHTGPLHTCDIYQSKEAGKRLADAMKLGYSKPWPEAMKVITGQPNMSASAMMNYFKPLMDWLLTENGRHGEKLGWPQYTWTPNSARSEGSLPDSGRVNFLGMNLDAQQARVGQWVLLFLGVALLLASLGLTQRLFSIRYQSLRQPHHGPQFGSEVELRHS

[4] = DRUGMATRIX: ATPase, Na+/K+ enzyme inhibition (substrate: ATP); assay type: tissue-based, Sus scrofa, Heart; conditions: Not Active = under 50% inhibition at 10 µM
Histamine H2 receptor = Histamine H2 receptor (Homo sapiens, UniProt P25021); assay type: cell membranes, CHO-K1, Membrane; conditions: cho-k1; also: in other assays of this panel Not Active means under 50% inhibition at 10 µM
Histamine H2 receptor, sequence (P25021 whole entry): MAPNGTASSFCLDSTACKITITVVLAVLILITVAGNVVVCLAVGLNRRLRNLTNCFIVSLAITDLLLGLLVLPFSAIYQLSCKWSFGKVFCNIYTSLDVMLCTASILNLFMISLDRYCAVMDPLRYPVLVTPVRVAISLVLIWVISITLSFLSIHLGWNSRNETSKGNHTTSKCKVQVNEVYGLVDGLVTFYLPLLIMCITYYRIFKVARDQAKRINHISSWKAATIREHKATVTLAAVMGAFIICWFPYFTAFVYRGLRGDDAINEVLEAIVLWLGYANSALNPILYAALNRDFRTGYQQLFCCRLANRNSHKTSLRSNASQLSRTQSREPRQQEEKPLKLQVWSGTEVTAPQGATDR

5-hydroxytryptamine receptor 6, sequence (P50406 whole entry): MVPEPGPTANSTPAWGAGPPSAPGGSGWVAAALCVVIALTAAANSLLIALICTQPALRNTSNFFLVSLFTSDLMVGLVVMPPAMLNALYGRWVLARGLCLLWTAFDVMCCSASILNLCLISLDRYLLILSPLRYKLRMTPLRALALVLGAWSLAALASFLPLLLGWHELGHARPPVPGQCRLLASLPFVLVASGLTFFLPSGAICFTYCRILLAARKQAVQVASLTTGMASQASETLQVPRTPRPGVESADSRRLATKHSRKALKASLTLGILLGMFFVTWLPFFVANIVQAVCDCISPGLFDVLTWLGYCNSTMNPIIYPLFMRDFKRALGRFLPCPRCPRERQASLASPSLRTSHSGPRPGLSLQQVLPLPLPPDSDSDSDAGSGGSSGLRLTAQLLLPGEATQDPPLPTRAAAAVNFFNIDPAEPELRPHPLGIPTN

## O=C(O)CC(O)(CC(=O)O)C(=O)O [CITRIC ACID]
[1]
  IC50: Not Active
[2]
  IC50: Not Active
  Ki: Not Active
Adenosine receptor A1; cho
  IC50: Not Active
[3]
  IC50: Not Active
[4]
  IC50: Not Active
  Ki: Not Active
Histamine H2 receptor
  IC50: Not Active

## CCCCC1=NC2(CCCC2)C(=O)N1Cc1ccc(-c2ccccc2-c2nnn[nH]2)cc1 [IRBESARTAN]
[1]
  IC50: Not Active
[2]
  IC50: Not Active
  Ki: Not Active
Adenosine receptor A1; cho
  IC50: Not Active
[3]
  IC50: Not Active
[4]
  IC50: Not Active
  Ki: Not Active
Histamine H2 receptor
  IC50: Not Active

## O=c1c(-c2ccc(O)cc2)coc2cc(O)cc(O)c12 [GENISTEIN]
[1]
  IC50: Not Active
[2]
  IC50: Not Active
  Ki: Not Active
Adenosine receptor A1; read-out: IC50
  IC50: 19.9 µM
Adenosine receptor A1; read-out: Ki
  Ki: 11.6 µM
[3]
  IC50: Not Active
[4]
  IC50: Not Active
  Ki: Not Active
Histamine H2 receptor
  IC50: Not Active

## CN(C)C(=N)NC(=N)N [METFORMIN]
[1]
  IC50: Not Active
[2]
  IC50: Not Active
  Ki: Not Active
Adenosine receptor A1; cho
  IC50: Not Active
[3]
  IC50: Not Active
[4]
  IC50: Not Active
  Ki: Not Active
Histamine H2 receptor
  IC50: Not Active

## C[C@H]1O[C@H](O[C@H]2[C@H](O)[C@@H](O)[C@@H](O[C@H]3[C@H](O)[C@@H](O)C(O)O[C@@H]3CO)O[C@@H]2CO)[C@H](O)[C@@H](O)[C@@H]1N[C@H]1C=C(CO)[C@@H](O)[C@H](O)[C@H]1O (some centres undefined) [ACARBOSE]
[1]
  IC50: Not Active
[2]
  IC50: Not Active
  Ki: Not Active
Adenosine receptor A1; cho
  IC50: Not Active
[3]
  IC50: Not Active
[4]
  IC50: Not Active
  Ki: Not Active
Histamine H2 receptor
  IC50: Not Active

## COc1ccccc1N
[1]
  IC50: Not Active
[2]
  IC50: Not Active
  Ki: Not Active
Adenosine receptor A1; cho
  IC50: Not Active
[3]
  IC50: Not Active
[4]
  IC50: Not Active
  Ki: Not Active
Histamine H2 receptor
  IC50: Not Active

## CC(O)COC[C@H]1O[C@@H]2O[C@H]3[C@H](O)[C@@H](O)[C@@H](O[C@H]4[C@H](O)[C@@H](O)[C@@H](O[C@H]5[C@H](O)[C@@H](O)[C@@H](O[C@H]6[C@H](O)[C@@H](O)[C@@H](O[C@H]7[C@H](O)[C@@H](O)[C@@H](O[C@H]8[C@H](O)[C@@H](O)[C@@H](O[C@H]1[C@H](O)[C@H]2O)O[C@@H]8COCC(C)O)O[C@@H]7COCC(C)O)O[C@@H]6COCC(C)O)O[C@@H]5COCC(C)O)O[C@@H]4COCC(C)O)O[C@@H]3COCC(C)O (stereo partly drawn) [2-HYDROXYPROPYL-BETA-CYCLODEXTRIN]
[1]
  IC50: Not Active
[2]
  IC50: Not Active
  Ki: Not Active
Adenosine receptor A1; cho
  IC50: Not Active
[3]
  IC50: Not Active
[4]
  IC50: Not Active
  Ki: Not Active
Histamine H2 receptor
  IC50: Not Active

## N[C@@H](Cn1ccc(=O)c(O)c1)C(=O)O [L-MIMOSINE]
[1]
  IC50: Not Active
[2]
  IC50: Not Active
  Ki: Not Active
Adenosine receptor A1; cho
  IC50: Not Active
[3]
  IC50: Not Active
[4]
  IC50: Not Active
  Ki: Not Active
Histamine H2 receptor
  IC50: Not Active

## CS(=O)(=O)Nc1ccc([N+](=O)[O-])cc1Oc1ccccc1 [NIMESULIDE]
[1]
  IC50: Not Active
[2]
  IC50: Not Active
  Ki: Not Active
Adenosine receptor A1; cho
  IC50: Not Active
[3]
  IC50: Not Active
[4]
  IC50: Not Active
  Ki: Not Active
Histamine H2 receptor
  IC50: Not Active

## C[N+](C)(C)C[C@H](O)CC(=O)[O-] [LEVOCARNITINE]
[1]
  IC50: Not Active
[2]
  IC50: Not Active
  Ki: Not Active
Adenosine receptor A1; cho
  IC50: Not Active
[3]
  IC50: Not Active
[4]
  IC50: Not Active
  Ki: Not Active
Histamine H2 receptor
  IC50: Not Active

## O=C(O)c1cc(-c2ccc(F)cc2F)ccc1O [DIFLUNISAL]
[1]
  IC50: Not Active
[2]
  IC50: Not Active
  Ki: Not Active
Adenosine receptor A1; cho
  IC50: Not Active
[3]
  IC50: Not Active
[4]
  IC50: Not Active
  Ki: Not Active
Histamine H2 receptor
  IC50: Not Active

## CN1CCN(C(c2ccccc2)c2ccccc2)CC1 [CYCLIZINE]
[1]
  IC50: Not Active
[2]
  IC50: Not Active
  Ki: Not Active
Adenosine receptor A1; cho
  IC50: Not Active
[3]
  IC50: Not Active
[4]
  IC50: Not Active
  Ki: Not Active
Histamine H2 receptor
  IC50: Not Active

## CC(C)(C)NCC(O)COc1cccc2c1CC(O)C(O)C2 (centres undefined) [NADOLOL]
[1]
  IC50: Not Active
[2]
  IC50: Not Active
  Ki: Not Active
Adenosine receptor A1; cho
  IC50: Not Active
[3]
  IC50: Not Active
[4]
  IC50: Not Active
  Ki: Not Active
Histamine H2 receptor
  IC50: Not Active

## CCCNC(=O)NS(=O)(=O)c1ccc(Cl)cc1 [CHLORPROPAMIDE]
[1]
  IC50: Not Active
[2]
  IC50: Not Active
  Ki: Not Active
Adenosine receptor A1; cho
  IC50: Not Active
[3]
  IC50: Not Active
[4]
  IC50: Not Active
  Ki: Not Active
Histamine H2 receptor
  IC50: Not Active

## CO/N=C(\C(=O)N[C@@H]1C(=O)N2C(C(=O)O)=C(COC(C)=O)CS[C@H]12)c1csc(N)n1 [CEFOTAXIME]
[1]
  IC50: Not Active
[2]
  IC50: Not Active
  Ki: Not Active
Adenosine receptor A1; cho
  IC50: Not Active
[3]
  IC50: Not Active
[4]
  IC50: Not Active
  Ki: Not Active
Histamine H2 receptor
  IC50: Not Active

## Nc1cc(-c2ccncc2)c[nH]c1=O [INAMRINONE]
[1]
  IC50: Not Active
[2]
  IC50: Not Active
  Ki: Not Active
Adenosine receptor A1; cho
  IC50: Not Active
[3]
  IC50: Not Active
[4]
  IC50: Not Active
  Ki: Not Active
Histamine H2 receptor
  IC50: Not Active
